PubChem BioAssay (NCI)
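1) Cells in 96-well plates. 2) Compound, 48 h, 5 concentrations. 3) Linear interpolation between surrounding doses. 4) Unreached endpoint = highest concentration. Here, GI50 denotes the concentration required for 50% inhibition of growth. TGI denotes the concentration required for complete inhibition of growth.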

Legend:
Assay in all cases: NCI anticancer screen, dose series, 48 h
SNB-19 CNS = test system: SNB-19 CNS
OVCAR-8 ovarian = test system: OVCAR-8 ovarian
HOP-62 NSCLC = test system: HOP-62 NSCLC
SN12C renal = test system: SN12C renal
UACC-62 melanoma = test system: UACC-62 melanoma
RXF 393 renal = test system: RXF 393 renal
M14 melanoma = test system: M14 melanoma
SF-539 CNS = test system: SF-539 CNS
MDA-MB-231 breast = test system: MDA-MB-231 breast
MDA-MB-435 = test system: MDA-MB-435
A549 NSCLC = test system: A549 NSCLC
SK-OV-3 ovarian = test system: SK-OV-3 ovarian
SK-MEL-5 melanoma = test system: SK-MEL-5 melanoma
NCI/ADR-RES ovarian = test system: NCI/ADR-RES ovarian
TK-10 renal = test system: TK-10 renal
SW-620 colon = test system: SW-620 colon
U251 CNS = test system: U251 CNS
OVCAR-5 ovarian = test system: OVCAR-5 ovarian
K-562 leukemia = test system: K-562 leukemia
UO-31 renal = test system: UO-31 renal
IGROV1 ovarian = test system: IGROV1 ovarian
CAKI-1 renal = test system: CAKI-1 renal
PC-3 prostate = test system: PC-3 prostate
UACC-257 melanoma = test system: UACC-257 melanoma
HL-60(TB) leukemia = test system: HL-60(TB) leukemia
SR leukemia = test system: SR leukemia
MALME-3M melanoma = test system: MALME-3M melanoma
NCI-H460 lung = test system: NCI-H460 lung
HCT-116 colon = test system: HCT-116 colon
DU-145 prostate = test system: DU-145 prostate
BT-549 breast = test system: BT-549 breast
SF-295 CNS = test system: SF-295 CNS
ACHN renal = test system: ACHN renal
SK-MEL-2 melanoma = test system: SK-MEL-2 melanoma
SF-268 CNS = test system: SF-268 CNS
NCI-H23 lung = test system: NCI-H23 lung
786-0 renal = test system: 786-0 renal
KM12 colon = test system: KM12 colon
NCI-H226 lung = test system: NCI-H226 lung
LOX IMVI melanoma = test system: LOX IMVI melanoma
MOLT-4 leukemia = test system: MOLT-4 leukemia
T-47D breast = test system: T-47D breast
SNB-75 CNS = test system: SNB-75 CNS
EKVX NSCLC = test system: EKVX NSCLC
COLO 205 colon = test system: COLO 205 colon
OVCAR-3 ovarian = test system: OVCAR-3 ovarian
OVCAR-4 ovarian = test system: OVCAR-4 ovarian
SK-MEL-28 melanoma = test system: SK-MEL-28 melanoma
MCF7 breast = test system: MCF7 breast
HOP-92 NSCLC = test system: HOP-92 NSCLC
HCT-15 colon = test system: HCT-15 colon
HT29 colon = test system: HT29 colon

Structure (SMILES): CCCNC(=O)c1ccc(Cl)cc1Cl
- GI50 (SNB-19 CNS): > 100 µM
- TGI (SNB-19 CNS): > 100 µM
- GI50 (OVCAR-8 ovarian): > 100 µM
- TGI (OVCAR-8 ovarian): > 100 µM
- GI50 (HOP-62 NSCLC): > 100 µM
- TGI (HOP-62 NSCLC): > 100 µM
- GI50 (SN12C renal): > 100 µM
- TGI (SN12C renal): > 100 µM
- GI50 (UACC-62 melanoma): > 100 µM
- TGI (UACC-62 melanoma): > 100 µM
- GI50 (RXF 393 renal): > 100 µM
- TGI (RXF 393 renal): > 100 µM
- GI50 (M14 melanoma): > 100 µM
- TGI (M14 melanoma): > 100 µM
- GI50 (SF-539 CNS): > 100 µM
- TGI (SF-539 CNS): > 100 µM
- GI50 (MDA-MB-231 breast): > 100 µM
- TGI (MDA-MB-231 breast): > 100 µM
- GI50 (MDA-MB-435): > 100 µM
- TGI (MDA-MB-435): > 100 µM
- GI50 (A549 NSCLC): > 100 µM
- TGI (A549 NSCLC): > 100 µM
- GI50 (SK-OV-3 ovarian): > 100 µM
- TGI (SK-OV-3 ovarian): > 100 µM
- GI50 (SK-MEL-5 melanoma): > 100 µM
- TGI (SK-MEL-5 melanoma): > 100 µM
- GI50 (NCI/ADR-RES ovarian): > 100 µM
- TGI (NCI/ADR-RES ovarian): > 100 µM
- GI50 (TK-10 renal): > 100 µM
- TGI (TK-10 renal): > 100 µM
- GI50 (SW-620 colon): > 100 µM
- TGI (SW-620 colon): > 100 µM
- GI50 (U251 CNS): > 100 µM
- TGI (U251 CNS): > 100 µM
- GI50 (OVCAR-5 ovarian): > 100 µM
- TGI (OVCAR-5 ovarian): > 100 µM
- GI50 (K-562 leukemia): > 100 µM
- TGI (K-562 leukemia): > 100 µM
- GI50 (UO-31 renal): > 100 µM
- TGI (UO-31 renal): > 100 µM
- GI50 (IGROV1 ovarian): > 100 µM
- TGI (IGROV1 ovarian): > 100 µM
- GI50 (CAKI-1 renal): > 100 µM
- TGI (CAKI-1 renal): > 100 µM
- GI50 (PC-3 prostate): > 100 µM
- TGI (PC-3 prostate): > 100 µM
- GI50 (UACC-257 melanoma): > 100 µM
- TGI (UACC-257 melanoma): > 100 µM
- GI50 (HL-60(TB) leukemia): > 100 µM
- TGI (HL-60(TB) leukemia): > 100 µM
- GI50 (SR leukemia): > 100 µM
- TGI (SR leukemia): > 100 µM
- GI50 (MALME-3M melanoma): > 100 µM
- TGI (MALME-3M melanoma): > 100 µM
- GI50 (NCI-H460 lung): > 100 µM
- TGI (NCI-H460 lung): > 100 µM
- GI50 (HCT-116 colon): > 100 µM
- TGI (HCT-116 colon): > 100 µM
- GI50 (DU-145 prostate): > 100 µM
- TGI (DU-145 prostate): > 100 µM
- GI50 (BT-549 breast): > 100 µM
- TGI (BT-549 breast): > 100 µM
- GI50 (SF-295 CNS): > 100 µM
- TGI (SF-295 CNS): > 100 µM
- GI50 (ACHN renal): > 100 µM
- TGI (ACHN renal): > 100 µM
- GI50 (SK-MEL-2 melanoma): > 100 µM
- TGI (SK-MEL-2 melanoma): > 100 µM
- GI50 (SF-268 CNS): > 100 µM
- TGI (SF-268 CNS): > 100 µM
- GI50 (NCI-H23 lung): > 100 µM
- TGI (NCI-H23 lung): > 100 µM
- GI50 (786-0 renal): > 100 µM
- TGI (786-0 renal): > 100 µM
- GI50 (KM12 colon): > 100 µM
- TGI (KM12 colon): > 100 µM
- GI50 (NCI-H226 lung): > 100 µM
- TGI (NCI-H226 lung): > 100 µM
- GI50 (LOX IMVI melanoma): > 100 µM
- TGI (LOX IMVI melanoma): > 100 µM
- GI50 (MOLT-4 leukemia): > 100 µM
- TGI (MOLT-4 leukemia): > 100 µM
- GI50 (T-47D breast): > 100 µM
- TGI (T-47D breast): > 100 µM
- GI50 (SNB-75 CNS): > 100 µM
- TGI (SNB-75 CNS): > 100 µM
- GI50 (EKVX NSCLC): > 100 µM
- TGI (EKVX NSCLC): > 100 µM
- GI50 (COLO 205 colon): > 100 µM
- TGI (COLO 205 colon): > 100 µM
- GI50 (OVCAR-3 ovarian): > 100 µM
- TGI (OVCAR-3 ovarian): > 100 µM
- GI50 (OVCAR-4 ovarian): > 100 µM
- TGI (OVCAR-4 ovarian): > 100 µM
- GI50 (SK-MEL-28 melanoma): > 100 µM
- TGI (SK-MEL-28 melanoma): > 100 µM
- GI50 (MCF7 breast): > 100 µM
- TGI (MCF7 breast): > 100 µM
- GI50 (HOP-92 NSCLC): > 100 µM
- TGI (HOP-92 NSCLC): > 100 µM
- GI50 (HCT-15 colon): > 100 µM
- TGI (HCT-15 colon): > 100 µM
- GI50 (HT29 colon): > 100 µM
- TGI (HT29 colon): > 100 µM
